Assay: osmotic coefficient (dimensionless); mn = molality of the nth substance listed, in mol/kg
Conditions: 308.15 K, Liquid, Osmomat K-7000

C[N+](C)(C)C.[I-] [tetramethylammonium iodide] + O
Conditions	osmotic coefficient
m1 = 0.01012	0.9766
m1 = 0.02006	0.9573
m1 = 0.0301	0.9365
m1 = 0.04063	0.9245
m1 = 0.04966	0.9108
m1 = 0.05912	0.8995
m1 = 0.07116	0.883
m1 = 0.1026	0.8569
m1 = 0.1286	0.8396
m1 = 0.1527	0.8277
m1 = 0.1802	0.8188

CCCC[N+](CCCC)(CCCC)CCCC.[Br-] [tetrabutylammonium bromide] + O
Conditions	osmotic coefficient
m1 = 0.00627	0.9763
m1 = 0.0125	0.9517
m1 = 0.02562	0.9279
m1 = 0.03159	0.9191
m1 = 0.03774	0.9126
m1 = 0.04597	0.9006
m1 = 0.06502	0.8805
m1 = 0.07496	0.8725
m1 = 0.113	0.8403
m1 = 0.1459	0.8228
m1 = 0.1775	0.8131
m1 = 0.2126	0.8046
m1 = 0.2558	0.794
m1 = 0.3305	0.785

C[N+](C)(C)C.[Cl-] [tetramethylammonium chloride] + O
Conditions	osmotic coefficient
m1 = 0.01861	0.9937
m1 = 0.03679	0.9747
m1 = 0.05507	0.958
m1 = 0.07403	0.9487
m1 = 0.09359	0.9393
m1 = 0.1112	0.9297
m1 = 0.1397	0.9173
m1 = 0.1877	0.8997
m1 = 0.2352	0.8878
m1 = 0.284	0.8757
m1 = 0.333	0.8675

CC[N+](CC)(CC)CC.[Br-] [tetraethylammonium bromide] + O
Conditions	osmotic coefficient
m1 = 0.00966	0.9933
m1 = 0.01943	0.9737
m1 = 0.03868	0.9492
m1 = 0.0491	0.9327
m1 = 0.05837	0.9256
m1 = 0.07077	0.916
m1 = 0.09678	0.8994
m1 = 0.1197	0.8851
m1 = 0.1561	0.869
m1 = 0.2146	0.85
m1 = 0.2799	0.8376
m1 = 0.3398	0.8275

C[N+](C)(C)C.[Br-] [tetramethylammonium bromide] + O
Conditions	osmotic coefficient
m1 = 0.01285	0.9931
m1 = 0.02557	0.9742
m1 = 0.03787	0.9583
m1 = 0.0549	0.948
m1 = 0.06504	0.94
m1 = 0.07726	0.9311
m1 = 0.0956	0.9195
m1 = 0.1326	0.8936
m1 = 0.1678	0.8796
m1 = 0.203	0.8696
m1 = 0.2383	0.8623
m1 = 0.3083	0.8489

Source: the NIST ThermoML archive (doi:10.1021/je400821q)
